From patent US9499537B2, “Antiviral pyrrolopyridine derivatives and method for preparing the same” (KOREA RESEARCH INSTITUTE OF CHEMICAL TECHNOLOGY, priority 2011, dated 2016) come the findings set out here.

The structures appear in SMILES notation.

For one series, the system named is MT-4 cells. As to the kind of experiment: Cytotoxicity test in MT-4 cells (MTT method). It is filed as cell-based. The following applies: human.

As to `Cc1nc2c(c(C)c(C)n2Cc2cc[nH]n2)c(-c2ccc(Cl)cc2)c1[C@H](OC(C)(C)C)C(=O)O` [Example 45, (S)-2-(1-((1H-pyrazol-3-yl)methyl)-4-(4-chlorophenyl)-2,3,6-trimethyl-1H-pyrrolo[2,3-b]pyridin-5-yl)-2-(tert-butoxy)acetic acid], the melting point was determined as 140 °C. Also, the “CC60 (μM) ** : concentration at 50% cell damage with respect to MT-4 cells” value in the series with MT-4 cells was 19.33 µM.
The corresponding values for `Cc1nc2c(c(C)c(C)n2Cc2cn[nH]c2)c(-c2ccc(Cl)cc2)c1[C@H](OC(C)(C)C)C(=O)O` [Example 46, (S)-2-(1-((1H-Pyrazol-4-yl)methyl)-4-(4-chlorophenyl)-2,3,6-trimethyl-1H-pyrrolo[2,3-b]pyridin-5-yl)-2-(tert-butoxy)acetic acid] are over 230 °C and 20.89 µM.
With `Cc1nc2c(c(C)c(C)n2Cc2cnccn2)c(-c2ccc(Cl)cc2)c1[C@H](OC(C)(C)C)C(=O)O` [Example 77, (S)-2-(Tert-butoxy)-2-(4-(4-chlorophenyl)-2,3,6-trimethyl-1-(pyrazin-2-ylmethyl)-1H-pyrrolo[2,3-b]pyridin-5-yl)acetic acid], in the series with MT-4 cells, the “CC60 (μM) ** : concentration at 50% cell damage with respect to MT-4 cells” value was 38.86 µM.
Consider `COCCn1c(C)c(C)c2c(-c3ccc(Cl)cc3)c([C@H](OC(C)(C)C)C(=O)O)c(C)nc21` [Example 78, (S)-2-(tert-butoxy)-2-(4-(4-chlorophenyl)-1-(2-methoxyethyl)-2,3,6-trimethyl-1H-pyrrolo[2,3-b]pyridin-5-yl)acetic acid], for which the “CC60 (μM) ** : concentration at 50% cell damage with respect to MT-4 cells” value in the series with MT-4 cells worked out at 18.36 µM.
Still for that read-out and setting: under `Cc1nc2c(c(C)c(C)n2Cc2ccn(C)n2)c(-c2ccc(Cl)cc2)c1[C@H](OC(C)(C)C)C(=O)O` [Example 79, (S)-2-(tert-butoxy)-2-(4-(4-chlorophenyl)-2,3,6-trimethyl-1-((1-methyl-1H-pyrazol-3-yl)methyl)-1H-pyrrolo[2,3-b]pyridin-5-yl)acetic acid] stands 25.09 µM.
